From the supplement of paper PMC10307832

Columns and labels:
Test in all cases: relative viability (nuclei count vs DMSO), 5 days (fraction); higher = more cells survive
NCI-H1975 = test system: NCI-H1975
Procedure, shortened: (§1)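 Relative viability was taken as the ratio of nuclei in treated wells to nuclei in vehicle wells. Lung cancer cell lines in 1536-well plates received compounds by pin tool one day after seeding, either one drug alone or a fixed anchor-drug dose plus five library-drug doses (not always all listed) in √10 steps. Nuclei were counted on 4× images after 5 days of treatment, and values are medians of duplicate plates.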

PC-3 [JPC-3] = test system: PC-3 [JPC-3]
Procedure, shortened: as §1

NCI-H596 = test system: NCI-H596
Procedure, shortened: as §1

NCI-H1666 = test system: NCI-H1666
Procedure, shortened: as §1

NCI-H1792 = test system: NCI-H1792
Procedure, shortened: as §1

NCI-H322M = test system: NCI-H322M
Procedure, shortened: as §1

NCI-H23 = test system: NCI-H23
Procedure, shortened: as §1

NCI-H727 = test system: NCI-H727
Procedure, shortened: as §1

NCI-H441 = test system: NCI-H441
Procedure, shortened: as §1

NCI-H647 = test system: NCI-H647
Procedure, shortened: as §1

NCI-H2342 = test system: NCI-H2342
Procedure, shortened: as §1

LCLC-97TM1 = test system: LCLC-97TM1
Procedure, shortened: as §1

NCI-H838 = test system: NCI-H838
Procedure, shortened: as §1

NCI-H358 = test system: NCI-H358
Procedure, shortened: as §1

NCI-H522 = test system: NCI-H522
Procedure, shortened: as §1

NCI-H1915 = test system: NCI-H1915
Procedure, shortened: as §1

NCI-H1437 = test system: NCI-H1437
Procedure, shortened: as §1

NCI-H460 = test system: NCI-H460
Procedure, shortened: as §1

EKVX = test system: EKVX
Procedure, shortened: as §1

Cc1cn(-c2cc(NC(=O)c3ccc(C)c(Nc4nccc(-c5cccnc5)n4)c3)cc(C(F)(F)F)c2)cn1 [Nilotinib] + NC(=O)Nc1cc(-c2cccc(F)c2)sc1C(=O)N[C@H]1CCCNC1 [AZD7762] (partner 0.2 µM)
relative viability (NCI-H1975; first compound 0.001 µM): 0.622
relative viability (NCI-H1975; first compound 0.003162 µM): 0.571
relative viability (NCI-H1975; first compound 0.01 µM): 0.744
relative viability (NCI-H1975; first compound 0.03162 µM): 0.613
relative viability (NCI-H1975; first compound 0.1 µM): 0.667
relative viability (PC-3 [JPC-3]; first compound 0.001 µM): 0.8
relative viability (PC-3 [JPC-3]; first compound 0.01 µM): 0.737
relative viability (PC-3 [JPC-3]; first compound 0.03162 µM): 0.749
relative viability (PC-3 [JPC-3]; first compound 0.1 µM): 0.527
relative viability (NCI-H596; first compound 0.001 µM): 1.11
relative viability (NCI-H596; first compound 0.003162 µM): 1.02
relative viability (NCI-H596; first compound 0.01 µM): 1.11
relative viability (NCI-H596; first compound 0.03162 µM): 1.13
relative viability (NCI-H596; first compound 0.1 µM): 1.01
relative viability (NCI-H1666; first compound 0.001 µM): 0.78
relative viability (NCI-H1666; first compound 0.01 µM): 0.855
relative viability (NCI-H1666; first compound 0.03162 µM): 0.74
relative viability (NCI-H1666; first compound 0.1 µM): 0.724
relative viability (NCI-H1792; first compound 0.001 µM): 0.483
relative viability (NCI-H1792; first compound 0.003162 µM): 0.638
relative viability (NCI-H1792; first compound 0.01 µM): 0.467
relative viability (NCI-H1792; first compound 0.03162 µM): 0.385
relative viability (NCI-H1792; first compound 0.1 µM): 0.263
relative viability (NCI-H322M; first compound 0.001 µM): 0.597
relative viability (NCI-H322M; first compound 0.003162 µM): 0.525
relative viability (NCI-H322M; first compound 0.01 µM): 0.518
relative viability (NCI-H322M; first compound 0.03162 µM): 0.41
relative viability (NCI-H322M; first compound 0.1 µM): 0.407
relative viability (NCI-H23; first compound 0.001 µM): 0.186
relative viability (NCI-H23; first compound 0.003162 µM): 0.221
relative viability (NCI-H23; first compound 0.01 µM): 0.154
relative viability (NCI-H23; first compound 0.03162 µM): 0.152
relative viability (NCI-H23; first compound 0.1 µM): 0.122
relative viability (NCI-H727; first compound 0.001 µM): 0.574
relative viability (NCI-H727; first compound 0.003162 µM): 0.528
relative viability (NCI-H727; first compound 0.01 µM): 0.456
relative viability (NCI-H727; first compound 0.03162 µM): 0.573
relative viability (NCI-H727; first compound 0.1 µM): 0.58
relative viability (NCI-H441; first compound 0.001 µM): 1.08
relative viability (NCI-H441; first compound 0.003162 µM): 1.21
relative viability (NCI-H441; first compound 0.01 µM): 1.19
relative viability (NCI-H441; first compound 0.03162 µM): 0.714
relative viability (NCI-H441; first compound 0.1 µM): 0.565
relative viability (NCI-H647; first compound 0.001 µM): 0.477
relative viability (NCI-H647; first compound 0.003162 µM): 0.41
relative viability (NCI-H647; first compound 0.01 µM): 0.359
relative viability (NCI-H647; first compound 0.03162 µM): 0.285
relative viability (NCI-H647; first compound 0.1 µM): 0.341
relative viability (NCI-H2342; first compound 0.001 µM): 0.425
relative viability (NCI-H2342; first compound 0.003162 µM): 0.315
relative viability (NCI-H2342; first compound 0.01 µM): 0.411
relative viability (NCI-H2342; first compound 0.03162 µM): 0.463
relative viability (NCI-H2342; first compound 0.1 µM): 0.427
relative viability (LCLC-97TM1; first compound 0.003162 µM): 0.366
relative viability (LCLC-97TM1; first compound 0.1 µM): 0.0966
relative viability (NCI-H838; first compound 0.001 µM): 0.86
relative viability (NCI-H838; first compound 0.003162 µM): 1.01
relative viability (NCI-H838; first compound 0.03162 µM): 0.9
relative viability (NCI-H838; first compound 0.1 µM): 0.995
relative viability (NCI-H358; first compound 0.001 µM): 0.458
relative viability (NCI-H358; first compound 0.003162 µM): 0.539
relative viability (NCI-H358; first compound 0.01 µM): 0.556
relative viability (NCI-H358; first compound 0.03162 µM): 0.459
relative viability (NCI-H358; first compound 0.1 µM): 0.523
relative viability (NCI-H522; first compound 0.01 µM): 0.861
relative viability (NCI-H522; first compound 0.03162 µM): 0.767
relative viability (NCI-H522; first compound 0.1 µM): 0.649
relative viability (NCI-H1915; first compound 0.001 µM): 0.682
relative viability (NCI-H1915; first compound 0.003162 µM): 0.683
relative viability (NCI-H1915; first compound 0.01 µM): 0.718
relative viability (NCI-H1915; first compound 0.03162 µM): 0.67
relative viability (NCI-H1915; first compound 0.1 µM): 0.619
relative viability (NCI-H1437; first compound 0.001 µM): 1.16
relative viability (NCI-H1437; first compound 0.003162 µM): 0.888
relative viability (NCI-H1437; first compound 0.01 µM): 1.12
relative viability (NCI-H1437; first compound 0.03162 µM): 0.899
relative viability (NCI-H1437; first compound 0.1 µM): 1.1
relative viability (NCI-H460; first compound 0.001 µM): 0.549
relative viability (NCI-H460; first compound 0.003162 µM): 0.603
relative viability (NCI-H460; first compound 0.01 µM): 0.389
relative viability (NCI-H460; first compound 0.03162 µM): 0.427
relative viability (NCI-H460; first compound 0.1 µM): 0.41
relative viability (EKVX; first compound 0.001 µM): 0.599
relative viability (EKVX; first compound 0.003162 µM): 0.654
relative viability (EKVX; first compound 0.01 µM): 0.729
relative viability (EKVX; first compound 0.03162 µM): 0.688
relative viability (EKVX; first compound 0.1 µM): 0.555
